Measured values from PMC7935272 (PLoS Pathogens, 2021).
Several values for one entry are separate records, joined by “and”; a condition that tells them apart may be missing. Equal values may be shown once. Read-outs that look alike come from different tables or passages of the source.

Experiments:
[1] = target: T1, MeV L E858D (Measles virus, UniProt P12576, E858D); set-up: method as in PMID 32661315; conditions: minigenome, reported previously ref 36; cited from earlier work
T1 construct: expressed in transfected cells; host or cells: BSR-T7/5

[2] = target: T2, MeV L (Measles virus, UniProt P12576); assay: MeV minigenome dose-response assay, L WT; type: cell-based; conditions: for minigenome activity, individual repeat: WT, Figure 1E
T2 construct: expressed in transfected cells; host or cells: BSR-T7/5

[3] = target: MeV L1708 (Measles virus, UniProt Q9WMB3); set-up: method as in PMID 32661315; conditions: BLI, MeV L1708 WT; reported previously ref 36; cited from earlier work
[4] = target: T3, MeV L I1009F (Measles virus, UniProt P12576, I1009F); set-up: method as in PMID 32661315; conditions: minigenome, reported previously ref 36; cited from earlier work
T3 construct: expressed in transfected cells; host or cells: BSR-T7/5

[5] = target: T4, MeV L H589Y (Measles virus, UniProt P12576, H589Y); assay: MeV minigenome dose-response assay, L H589Y; type: cell-based; conditions: for minigenome activity, individual repeat: H589Y, Figure 1E
T4 construct: expressed in transfected cells; host or cells: BSR-T7/5

[6] = target: T5, MeV L Y1106S (Measles virus, UniProt P12576, Y1106S); assay: MeV minigenome dose-response assay, L Y1106S; type: cell-based; conditions: EC50, L Y1106S vs WT
T5 construct: expressed in transfected cells; host or cells: BSR-T7/5

[7] = target: T6, MeV L V1239A (Measles virus, UniProt P12576, V1239A); assay: MeV minigenome dose-response assay, L V1239A; type: cell-based; conditions: for minigenome activity, individual repeat: Figure 1E
T6 construct: expressed in transfected cells; host or cells: BSR-T7/5

[8] = target: T7, MeV L S768A (Measles virus, UniProt P12576, S768A); assay: MeV minigenome dose-response assay, L S768A; type: cell-based
T7 construct: expressed in transfected cells; host or cells: BSR-T7/5

[9] = target: T8, MeV L T1010N (Measles virus, UniProt P12576, T1010N); assay: MeV minigenome dose-response assay, L T1010N; type: cell-based; conditions: EC50, L T1010N vs WT
T8 construct: expressed in transfected cells; host or cells: BSR-T7/5

[10] = target: MeV L1708 Y1106S; set-up: method as in PMID 32661315; conditions: BLI, reported previously ref 36; cited from earlier work
[11] = target: T5, MeV L Y1106S; set-up: method as in PMID 32661315; conditions: minigenome, reported previously ref 36; cited from earlier work
[12] = target: T8, MeV L T1010N; set-up: method as in PMID 32661315; conditions: minigenome, reported previously ref 36; cited from earlier work
[13] = target: T9, MeV L T776A (Measles virus, UniProt P12576, T776A); assay: MeV minigenome dose-response assay, L T776A; type: cell-based
T9 construct: expressed in transfected cells; host or cells: BSR-T7/5

[14] = target: T3, MeV L I1009F; assay: MeV minigenome dose-response assay, L I1009F; type: cell-based; conditions: EC50, L I1009F vs WT
[15] = target: T1, MeV L E858D; assay: MeV minigenome dose-response assay, L E858D; type: cell-based; conditions: EC50, L E858D vs WT
[16] = target: MeV L1708 I1009F; set-up: method as in PMID 32661315; conditions: BLI, reported previously ref 36; cited from earlier work
[17] = target: T10, MeV L L1170F (Measles virus, UniProt P12576, L1170F); assay: MeV minigenome dose-response assay, L L1170F; type: cell-based; conditions: for minigenome activity, individual repeat: Figure 1E
T10 construct: expressed in transfected cells; host or cells: BSR-T7/5

[18] = target: MeV L1708 E858D; set-up: method as in PMID 32661315; conditions: BLI, reported previously ref 36; cited from earlier work
[19] = test system: MeV; assay: Synergy analysis ERDRP-0519 and GHP-88309, antiviral; type: cell-based; conditions: ERDRP519 0.00 µM
[20] = test system: Vero-hSLAM cells
[21] = in vitro; type: cell-based, African green monkey; conditions: African green monkey; Vero-hSLAM, 72 hours
Method: (§1) To determine cytotoxic concentrations Vero-hSLAM cells were plated in 96 well plates (1.1 × 10^4 per well) and incubated with three-fold serial dilutions of compound. After incubation of uninfected cells for 72 hours, PrestoBlue substrate (Invitrogen) was added to quantify cell metabolic activity as described. Signal was measured using a BioTek H1 synergy multimode microplate reader. Where applicable, cytotoxic concentrations (CC50) were calculated based on four-parameter variable slope regression modeling.

[22] = test system: Vero-hSLAM cells; assay: in vitro; type: cell-based, African green monkey
Method: as §1

[23] = target: WT MeV L-P complexes (Measles virus, UniProt Q9WMB3); assay: In vitro MeV RdRP assay, de novo initiation, 16-nt template, L WT; type: biochemical; conditions: de novo RNA synthesis, S9 Fig
[24] = test system: MeV; assay: Antiviral dose-response assay, MeV-NanoPEST reporter virus in Vero-hSLAM cells

NC(=O)c1c(F)cccc1-c1cccc2cnccc12 [GHP-88309]
EC50 [1]: 15 µM | minigenome activity, individual repeat ([2]; GHP-88309 0.411523 µM): 87.746 and 92.4701 | minigenome activity, individual repeat ([2]; GHP-88309 1.23457 µM): 77.6244 and 62.4876 and 68.5227 and 90 and 86 and 112 | minigenome activity, individual repeat ([2]; GHP-88309 3.7037 µM): 31.991 and 34.7895 and 30.6512 and 25 and 32 and 29 | minigenome activity, individual repeat ([2]; GHP-88309 11.1111 µM): 2.411 and 2.106 and 2.445 and 2 and 4 and 3 | minigenome activity, individual repeat ([2]; GHP-88309 33.3333 µM): 1.248 and 0.5543 and 0.7091 and -4 and 2 and 3 | minigenome activity, individual repeat ([2]; GHP-88309 100 µM): 0.7732 and 1.544 and 0.3453 | EC50 ([2]; minigenome, L WT): 2.4 µM | Kd [3]: 6.2 µM | EC50 [4]: 18.6 µM | fold change to WT ([5]; EC50, L H589Y vs WT): 1.8 | minigenome activity, individual repeat ([5]; GHP-88309 0.0457247 µM): 99.134 and 165.3 and 161.609 | minigenome activity, individual repeat ([5]; GHP-88309 0.137174 µM): 129.072 and 126.646 and 70.0978 | minigenome activity, individual repeat ([5]; GHP-88309 0.411523 µM): 102.614 and 60.5017 and 60.0219 | minigenome activity, individual repeat ([5]; GHP-88309 1.23457 µM): 96.1391 and 78.5761 and 76.4935 | minigenome activity, individual repeat ([5]; GHP-88309 3.7037 µM): 76.5304 and 44.0459 and 30.8961 | minigenome activity, individual repeat ([5]; GHP-88309 11.1111 µM): 19.3913 and 21.0627 and 38.9421 | minigenome activity, individual repeat ([5]; GHP-88309 33.3333 µM): 3.067 and 1.981 and 4.217 | minigenome activity, individual repeat ([5]; GHP-88309 100 µM): -0.2175 and 2.229 and 0.06723 | EC50 ([5]; minigenome, L H589Y): 3.91 µM | fold change to WT [6]: >50 | fold change to WT ([7]; EC50, L V1239A vs WT): 0.7 | minigenome activity, individual repeat ([7]; GHP-88309 0.0457247 µM, L V1239A): 96 and 97 and 118 | minigenome activity, individual repeat ([7]; GHP-88309 0.137174 µM, L V1239A): 120 and 103 | minigenome activity, individual repeat ([7]; GHP-88309 0.411523 µM, L V1239A): 66 and 59 (2×) | minigenome activity, individual repeat ([7]; GHP-88309 1.23457 µM, L V1239A): 80 and 79 (2×) | minigenome activity, individual repeat ([7]; GHP-88309 3.7037 µM, L V1239A): 33 (2×) and 30 | minigenome activity, individual repeat ([7]; GHP-88309 11.1111 µM, L V1239A): 2 (2×) and 3 | minigenome activity, individual repeat ([7]; GHP-88309 33.3333 µM, L V1239A): -2 and 1 (2×) | EC50 ([7]; minigenome, L V1239A): 2.03 µM | fold change to WT ([8]; EC50, L S768A vs WT): 0.6 | EC50 ([8]; minigenome, L S768A): 1.26 µM | fold change to WT [9]: 3.8 | Kd [10]: > 300 µM | EC50 [11]: > 100 µM | EC50 [12]: 8.36 µM | fold change to WT ([13]; EC50, L T776A vs WT): 1.1 | EC50 ([13]; minigenome, L T776A): 2.39 µM | fold change to WT [14]: 8.3 | fold change to WT [15]: 6.7 | Kd [16]: 68.3 µM | fold change to WT ([17]; EC50, L L1170F vs WT): 0.7 | minigenome activity, individual repeat ([17]; GHP-88309 0.0457247 µM, L L1170F): 120 and 119 and 105 | minigenome activity, individual repeat ([17]; GHP-88309 0.137174 µM, L L1170F): 97 and 98 and 103 | minigenome activity, individual repeat ([17]; GHP-88309 0.411523 µM, L L1170F): 56 and 67 and 65 | minigenome activity, individual repeat ([17]; GHP-88309 1.23457 µM, L L1170F): 92 (2×) and 86 | minigenome activity, individual repeat ([17]; GHP-88309 3.7037 µM, L L1170F): 27 and 26 and 21 | minigenome activity, individual repeat ([17]; GHP-88309 11.1111 µM, L L1170F): 0 (2×) and 1 | minigenome activity, individual repeat ([17]; GHP-88309 33.3333 µM, L L1170F): -1 and 0 (2×) | EC50 ([17]; minigenome, L L1170F): 2.41 µM | Kd [18]: 8.6 µM

NC(=O)c1c(F)cccc1-c1cccc2cnccc12 [GHP88309]
S4 A antiviral matrix, normalized value ([19]; GHP88309 0.03 µM): 100.00 | S4 A antiviral matrix, normalized value ([19]; GHP88309 0.08 µM): 78.32 and 88.03 and 100.19 and 97.70 | S4 A antiviral matrix, normalized value ([19]; GHP88309 0.74 µM): 50.86 and 41.77 and 80.59 and 41.41 | S4 A antiviral matrix, normalized value ([19]; GHP88309 2.22 µM): 14.61 and 17.48 and 22.13 and 11.92 | S4 B cytotoxicity matrix, normalized value [20]: 100.00 | S4 B cytotoxicity matrix, normalized value ([20]; ERDRP519 0.00 µM, GHP88309 0.27 µM): 99.90 | S4 B cytotoxicity matrix, normalized value ([20]; ERDRP519 0.00 µM, GHP88309 0.82 µM): 99.44 and 91.52 | S4 B cytotoxicity matrix, normalized value ([20]; ERDRP519 0.00 µM, GHP88309 7.41 µM): 97.69 | S4 B cytotoxicity matrix, normalized value ([20]; ERDRP519 0.00 µM, GHP88309 66.67 µM): 98.85 and 98.57 | S4 B cytotoxicity matrix, normalized value ([20]; ERDRP519 0.00 µM, GHP88309 200.00 µM): 92.50 and 87.59 and 94.52

Cn1nc(C(F)(F)F)cc1C(=O)Nc1ccc(S(=O)(=O)N2CCCC[C@@H]2CCOCc2ccc(N=[N+]=[N-])cc2)cc1 [ERDRP-0519az, S(=O)(=O)(N1[C@@H](CCOCc2ccc(N=[N+]=[N-])cc2)CCCC1)c1ccc(NC(=O)c2n(C)nc(C(F)(F)F)c2)cc1]
CC50 [21]: > 100 µM | Cytotoxicity, normalized metabolic activity (Figure 5B) ([22]; cpd concentration 0.045725): 97.5938 and 98.2663 and 103.31 | Cytotoxicity, normalized metabolic activity (Figure 5B) ([22]; cpd concentration 0.137174): 101.061 and 94.8618 and 104.907 | Cytotoxicity, normalized metabolic activity (Figure 5B) ([22]; cpd concentration 0.411523): 95.7655 and 116.003 and 116.276 | Cytotoxicity, normalized metabolic activity (Figure 5B) ([22]; cpd concentration 1.23457): 92.9074 and 113.376 and 114.469 | Cytotoxicity, normalized metabolic activity (Figure 5B) ([22]; cpd concentration 3.7037): 94.1683 and 104.487 and 118.02 | Cytotoxicity, normalized metabolic activity (Figure 5B) ([22]; cpd concentration 11.1111): 88.7254 and 96.8582 and 105.432 | Cytotoxicity, normalized metabolic activity (Figure 5B) ([22]; cpd concentration 33.3333): 97.5097 and 90.4066 and 94.9249 | Cytotoxicity, normalized metabolic activity (Figure 5B) ([22]; cpd concentration 100): 99.0228 and 98.1192 and 101.776 | cytotoxicity ([22]; highest concentration tested (100 μM)): No cytotoxicity was detectable | bioactivity in the in vitro RdRP assay [23]: diminished potency | EC50 [24]: 12.1 µM | MeV inhibition, normalized reporter signal (Figure 5B) ([24]; cpd concentration 0.045725): 95.5633 and 136.086 and 77.2785 | MeV inhibition, normalized reporter signal (Figure 5B) ([24]; cpd concentration 0.137174): 112.785 and 92.1722 and 86.1147 | MeV inhibition, normalized reporter signal (Figure 5B) ([24]; cpd concentration 0.411523): 116.552 and 130.546 and 132.822 | MeV inhibition, normalized reporter signal (Figure 5B) ([24]; cpd concentration 1.23457): 119.15 and 109.045 and 127.688 | MeV inhibition, normalized reporter signal (Figure 5B) ([24]; cpd concentration 11.1111): 44.8748 and 67.0329 and 58.1588 | MeV inhibition, normalized reporter signal (Figure 5B) ([24]; cpd concentration 33.3333): 8.061 and 7.668 and 10.5185 | MeV inhibition, normalized reporter signal (Figure 5B) ([24]; cpd concentration 100): 2.512 and 3.634 and 2.904
